Data as given in US4956294A, “Culture of Streptoverticillium synroense for producing an antibacterial” (Merck & Co., Inc., priority 1989, dated 1990).
≈ marks a conversion by molar mass, not a printed value. Entries after “also recorded” stand apart in the source; their conditions may differ.

How the values were obtained:
Bacillus sp. 633 = test: Inhibition zone, agar plate; assay type: cell-based; details: 15λ, read-out: Inhibition Zone Diameter
Protocol: (§1) A crystalline sample of L-654,040 was dissolved in distilled water. Aliquots of 15λ were deposited on the surface of each seeded nutrient agar susceptibility test plate, followed by overnight incubation Plates were then measured for activity by determining the inhibition zone diameter under the previously placed 15λ aliquot.

Candida albicans 992 = test: Inhibition zone, agar plate; assay type: cell-based; details: 15λ, read-out: Inhibition Zone Diameter
Protocol: as §1

[1] = test system: Bacillus subtilis 964 (6633); test: Inhibition zone, agar plate; assay type: cell-based; details: 15λ, read-out: Inhibition Zone Diameter
[2] = test system: Salmonella gallinarum 1287; test: Inhibition zone, agar plate; assay type: cell-based; details: Salmonella enterica, 15λ, read-out: Inhibition Zone Diameter
[3] = test system: Xanthomonas vesicatoria 815; test: Inhibition zone, agar plate; assay type: cell-based; details: 15λ, read-out: Inhibition Zone Diameter
[4] = test system: Proteus vulgaris 838 (21100); test: Inhibition zone, agar plate; assay type: cell-based; details: 15λ, read-out: Inhibition Zone Diameter
Escherichia coli 1418 = test: Inhibition zone, agar plate; assay type: cell-based; details: 15λ, read-out: Inhibition Zone Diameter
[5] = test system: Pseudomonas stutzeri 1231 (11607); test: Inhibition zone, agar plate; assay type: cell-based; details: Stutzerimonas stutzeri, 15λ, read-out: Inhibition Zone Diameter
Aerobacter aerogenes 835 = test: Inhibition zone, agar plate; assay type: cell-based; details: Klebsiella aerogenes, 15λ, read-out: Inhibition Zone Diameter
[6] = test system: Pseudomonas aeruginosa 2824; test: Inhibition zone, agar plate; assay type: cell-based; details: 15λ, read-out: Inhibition Zone Diameter
[7] = test system: Escherichia coli 60 (9637); test: Inhibition zone, agar plate; assay type: cell-based; details: 15λ, read-out: Inhibition Zone Diameter
[8] = test system: Streptococcus agalactiae 2875; test: Inhibition zone, agar plate; assay type: cell-based; details: 15λ, read-out: Inhibition Zone Diameter
[9] = test system: Proteus vulgaris 2112 (episome); test: Inhibition zone, agar plate; assay type: cell-based; details: read-out: Inhibition Zone Diameter
[10] = test system: Actinomyces naeslundii 4053; test: Anaerobic agar dilution, Wilkens-Chalgren agar; assay type: cell-based; details: Actinomyces naeslundii, 4053, 48 h
[11] = test system: Propionibacterium acnes 2249; test: Anaerobic agar dilution, Wilkens-Chalgren agar; assay type: cell-based; details: Cutibacterium acnes, 2249, 48 h
[12] = test system: Clostridium perfringens NCCLS control strain 4418; test: microbe, parasite or virus in culture; assay type: cell-based; details: 48 h
C. perfringens 2237 = test: microbe, parasite or virus in culture; assay type: cell-based; details: Clostridium perfringens, 2237, 48 h
C. perfringens 3509 = test: microbe, parasite or virus in culture; assay type: cell-based; details: Clostridium perfringens, 3509, 48 h
C. perfringens 3513 = test: microbe, parasite or virus in culture; assay type: cell-based; details: Clostridium perfringens, 3513, 48 h
C. ramosum 4272 = test: Anaerobic agar dilution, Wilkens-Chalgren agar; assay type: cell-based; details: Thomasclavelia ramosa, 4272, 48 h
[13] = test system: C. difficile Clind^r 4273; test: Anaerobic agar dilution, Wilkens-Chalgren agar; assay type: cell-based; details: Clostridioides difficile, 48 h
[14] = test system: Bacteroides fragilis Met^r . Pen^r 4324; test: Anaerobic agar dilution, Wilkens-Chalgren agar; assay type: cell-based; details: 48 h
[15] = test system: B. fragilis Clind^r, Fox^r, Tet^r 4360; test: Anaerobic agar dilution, Wilkens-Chalgren agar; assay type: cell-based; details: Bacteroides fragilis, 48 h
[16] = test system: B. distasonis Pen^r, Fox^r 3445; test: Anaerobic agar dilution, Wilkens-Chalgren agar; assay type: cell-based; details: Parabacteroides distasonis, 48 h
[17] = test system: B. thetalotamicron Clind^r 4362; test: Anaerobic agar dilution, Wilkens-Chalgren agar; assay type: cell-based; details: 48 h
[18] = test system: Fusobacterium mortiferum Fox^r 3345; test: Anaerobic agar dilution, Wilkens-Chalgren agar; assay type: cell-based; details: 48 h
[19] = test system: Veillonella alcalescens 1952; test: Anaerobic agar dilution, Wilkens-Chalgren agar; assay type: cell-based; details: Veillonella parvula, 1952, 48 h
[20] = test system: S. aureus Gm^r Meth^r 4310; test: Agar dilution, trypticase soy agar; details: Staphylococcus aureus, 20 h
E. coli 2891 = test: Agar dilution, trypticase soy agar; details: Escherichia coli, 2891, 20 h
Ent. cloacae P99+ 2646 = test: Agar dilution, trypticase soy agar; details: Enterobacter cloacae, 20 h
Ent. cloacae P99- 2647 [21] = test: Agar dilution, trypticase soy agar; details: Enterobacter cloacae, P992647, 20 h
Prot. vulgaris 2829 = test: Agar dilution, trypticase soy agar; details: Proteus vulgaris, 2829, 20 h
Ser. marcescens 2840 = test: Agar dilution, trypticase soy agar; details: Serratia marcescens, 2840, 20 h
Staph. aureus 2865 = test: Agar dilution, antagonist-free medium
Sal. typhimurium 3860 = test: Agar dilution, antagonist-free medium; details: Salmonella enterica, 20 h
Ent. cloacae P99- 2647 [22] = test: Agar dilution, antagonist-free medium; details: Enterobacter cloacae, P992647, 20 h
[23] = test system: Bordetella bronchiseptica (3771); test: Protection and survival of infected mice; details: intraperitoneal

Work on `C[C@H](CNC(=O)[C@H]1N=C(c2cccc(O)c2O)O[C@@H]1C)C(=O)N[C@@H]1CCCN(O)C1=O` [L-654,040, 2-(2,3-dihydroxyphenyl)-4,5-dihydro-N-[3-[(1-hydroxy-2-oxo-3(R)-piperidinyl)-amino]-2(R)-methyl-3-oxopropyl]-5R-methyl-4S-oxazolecarboxamide] yielded a zone of inhibition at 500 µg/mL (Bacillus sp. 633; 0.5 mg/ml in distilled H2O) of 23 mm, a zone of inhibition at 2000 µg/mL (Bacillus sp. 633; 2 mg/ml in distilled H2O) of 28 mm and a zone of inhibition at 500 µg/mL (Candida albicans 992; 0.5 mg/ml in distilled H2O) of 16 mm. The zone of inhibition at 2000 µg/mL (Candida albicans 992; 2 mg/ml in distilled H2O) was 24 mm, the zone of inhibition at 500 µg/mL ([1]; 0.5 mg/ml in distilled H2O) was 12 mm and the zone of inhibition at 2000 µg/mL ([1]; 2 mg/ml in distilled H2O) was 14 mm. It also gave a zone of inhibition at 500 µg/mL ([2]; 0.5 mg/ml in distilled H2O) of 0 mm, a zone of inhibition at 2000 µg/mL ([2]; 2 mg/ml in distilled H2O) of 0 mm and a zone of inhibition at 500 µg/mL ([3]; 0.5 mg/ml in distilled H2O) of 0 mm. The zone of inhibition at 2000 µg/mL ([3]; 2 mg/ml in distilled H2O) was 0 mm, the zone of inhibition at 500 µg/mL ([4]; 0.5 mg/ml in distilled H2O) was 18 mm and the zone of inhibition at 2000 µg/mL ([4]; 2 mg/ml in distilled H2O) was 31 mm. For the same molecule, the zone of inhibition at 500 µg/mL (Escherichia coli 1418; 0.5 mg/ml in distilled H2O) was 0 mm, the zone of inhibition at 2000 µg/mL (Escherichia coli 1418; 2 mg/ml in distilled H2O) was 13 mm and the zone of inhibition at 500 µg/mL ([5]; 0.5 mg/ml in distilled H2O) was 12 mm. The zone of inhibition at 2000 µg/mL ([5]; 2 mg/ml in distilled H2O) was 13 mm, the zone of inhibition at 500 µg/mL (Aerobacter aerogenes 835; 0.5 mg/ml in distilled H2O) was 0 mm and the zone of inhibition at 2000 µg/mL (Aerobacter aerogenes 835; 2 mg/ml in distilled H2O) was 0 mm. For the same molecule, the zone of inhibition at 500 µg/mL ([6]; 0.5 mg/ml in distilled H2O) was 0 mm, the zone of inhibition at 2000 µg/mL ([6]; 2 mg/ml in distilled H2O) was 0 mm and the zone of inhibition at 500 µg/mL ([7]; 0.5 mg/ml in distilled H2O) was 0 mm. The zone of inhibition at 2000 µg/mL ([7]; 2 mg/ml in distilled H2O) was 0 mm, the zone of inhibition at 500 µg/mL ([8]; 0.5 mg/ml in distilled H2O) was 12 mm and the zone of inhibition at 2000 µg/mL ([8]; 2 mg/ml in distilled H2O) was 13 mm. It also gave a zone of inhibition at 500 µg/mL [9] of 16 mm, a zone of inhibition at 2000 µg/mL [9] of 28 mm and an MIC [10] of 128 µg/mL (≈ 295 µM). It also gave an MIC [11] of 128 µg/mL (≈ 295 µM), an MIC [12] of 64 µg/mL (≈ 147 µM) and an MIC (C. perfringens 2237) of 128 µg/mL (≈ 295 µM). The MIC (C. perfringens 3509) was 64 µg/mL (≈ 147 µM), the MIC (C. perfringens 3513) was 128 µg/mL (≈ 295 µM) and the MIC (C. ramosum 4272) was 64 µg/mL (≈ 147 µM). The MIC [13] was 128 µg/mL (≈ 295 µM), the MIC [14] was 128 µg/mL (≈ 295 µM) and the MIC [15] was > 128 µg/mL. For the same molecule, the MIC [16] was > 128 µg/mL, the MIC [17] was > 128 µg/mL and the MIC [18] was > 128 µg/mL. The MIC [19] was > 128 µg/mL, the MIC [20] was 128 µg/mL (≈ 295 µM) and the MIC (E. coli 2891) was > 128 µg/mL. The MIC (Ent. cloacae P99+ 2646) was > 128 µg/mL, the MIC (Ent. cloacae P99- 2647 [21]) was > 128 µg/mL and the MIC (Prot. vulgaris 2829) was > 128 µg/mL. For the same molecule, the MIC (Ser. marcescens 2840) was > 128 µg/mL, the sensitivity of strain (Staph. aureus 2865; Staphylococcus aureus 2865) was “sensitive” and the MIC (Staph. aureus 2865; Staphylococcus aureus, 2865, 20 h) was 32 µg/mL (≈ 73.7 µM). The MIC (Sal. typhimurium 3860) was > 256 µg/mL, the MIC (Ent. cloacae P99- 2647 [22]) was > 256 µg/mL and the protection against infection [23] was “did not protect”. The survival time ([23]; 160 mg/kg x 2, significant only in Pasteurella-infected animals) was “prolongation of survival time was observed; also recorded: did prolong the survival time”.
